Experimental data published in patent US20210317140A1, “Heterocyclic Compounds and Methods of Use” (MEDIVATION TECHNOLOGIES, INC, priority 2013, published 2021).
“And” between values parts separate entries of the source, which are not always exact repeats. Identical values can stand only once.

What was measured:
PI3Kδ = target: T1, PI3Kδ (Homo sapiens, UniProt O00329); test: PI3Kδ kinase assay (HTRF, PIP3 detection); type: biochemical; details: for IC50: 10 dose IC50, 10 μM ATP; for PI3Kδ @ 0.1 μM (% Inh): 0.1 μM compound; for PI3Kδ @ 0.1 μM (% Inh) / PI3Kδ @ 1 μM (% Inh): 10 μM ATP; for PI3Kδ @ 1 μM (% Inh): 1 μM compound
T1 construct: purchased Reaction Biology Corporation
T1 sequence (O00329 whole entry): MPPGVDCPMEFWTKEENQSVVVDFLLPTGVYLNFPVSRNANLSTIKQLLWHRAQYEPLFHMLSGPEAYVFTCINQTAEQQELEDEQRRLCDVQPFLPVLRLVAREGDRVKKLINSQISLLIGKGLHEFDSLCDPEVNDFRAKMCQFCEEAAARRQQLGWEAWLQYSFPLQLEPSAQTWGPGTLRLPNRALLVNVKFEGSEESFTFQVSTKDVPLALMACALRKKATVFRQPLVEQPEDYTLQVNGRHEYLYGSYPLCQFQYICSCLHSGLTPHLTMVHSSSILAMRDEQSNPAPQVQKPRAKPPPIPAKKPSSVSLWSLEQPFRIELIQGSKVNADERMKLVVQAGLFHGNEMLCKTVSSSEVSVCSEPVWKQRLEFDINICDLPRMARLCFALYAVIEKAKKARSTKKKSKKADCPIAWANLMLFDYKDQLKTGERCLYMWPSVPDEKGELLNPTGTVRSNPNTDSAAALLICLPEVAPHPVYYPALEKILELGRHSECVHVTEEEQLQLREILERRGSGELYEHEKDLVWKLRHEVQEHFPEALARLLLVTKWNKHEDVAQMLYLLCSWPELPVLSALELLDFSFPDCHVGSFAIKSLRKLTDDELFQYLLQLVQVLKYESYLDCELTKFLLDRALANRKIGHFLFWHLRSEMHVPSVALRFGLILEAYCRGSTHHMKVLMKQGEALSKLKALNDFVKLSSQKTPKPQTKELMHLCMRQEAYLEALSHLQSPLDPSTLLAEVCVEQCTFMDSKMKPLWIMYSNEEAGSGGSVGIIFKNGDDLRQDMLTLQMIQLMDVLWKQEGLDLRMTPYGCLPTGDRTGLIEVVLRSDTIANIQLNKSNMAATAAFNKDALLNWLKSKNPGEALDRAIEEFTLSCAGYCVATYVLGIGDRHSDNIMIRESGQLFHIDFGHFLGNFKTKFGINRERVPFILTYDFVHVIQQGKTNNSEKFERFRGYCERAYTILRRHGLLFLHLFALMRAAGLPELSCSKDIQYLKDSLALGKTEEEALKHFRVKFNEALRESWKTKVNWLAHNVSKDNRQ
T1 sequence (P27986 whole entry partner): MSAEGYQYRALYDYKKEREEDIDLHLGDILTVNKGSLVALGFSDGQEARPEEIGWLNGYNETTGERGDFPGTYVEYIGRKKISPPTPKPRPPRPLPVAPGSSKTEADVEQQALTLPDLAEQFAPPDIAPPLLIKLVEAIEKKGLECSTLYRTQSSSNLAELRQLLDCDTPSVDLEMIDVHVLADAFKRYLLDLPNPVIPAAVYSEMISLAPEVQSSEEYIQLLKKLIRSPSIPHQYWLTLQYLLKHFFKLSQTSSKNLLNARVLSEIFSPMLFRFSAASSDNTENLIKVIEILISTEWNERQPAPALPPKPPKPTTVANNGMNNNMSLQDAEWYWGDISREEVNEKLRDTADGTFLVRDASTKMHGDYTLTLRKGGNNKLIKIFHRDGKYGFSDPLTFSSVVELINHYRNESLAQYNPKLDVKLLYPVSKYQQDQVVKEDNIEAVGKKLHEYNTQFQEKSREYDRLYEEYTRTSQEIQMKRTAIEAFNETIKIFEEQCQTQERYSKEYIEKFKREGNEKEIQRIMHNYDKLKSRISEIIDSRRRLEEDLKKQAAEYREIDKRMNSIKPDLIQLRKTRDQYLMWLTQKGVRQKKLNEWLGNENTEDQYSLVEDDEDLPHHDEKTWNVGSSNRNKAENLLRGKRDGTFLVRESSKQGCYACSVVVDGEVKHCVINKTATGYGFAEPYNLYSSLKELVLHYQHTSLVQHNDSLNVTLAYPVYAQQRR
Source text: (§1) Compounds of the invention were profiled in a 10 dose IC50 panel against BTK and PI3Kδ, both provided by Reaction Biology Corporation.
PI3Kδ assay: The PIP3 product is detected by displacement of biotin-PIP3 from an energy transfer complex consisting of Europium labeled anti-GST monoclonal antibody, a GST-tagged pleckstrin homology (PH) domain, biotinylated PIP3 and Streptavidin-Allophycocyanin (APC). […] The PIP3 product formed by PI 3-Kinase(h) activity displaces biotin-PIP3 from the complex resulting in a loss of energy transfer and thus a decrease in signal. This is a 3-step reaction: First, the kinase reaction with PIP2 substrate is carried out in the presence of ATP (10 μM), and the reaction is quenched with stop Solution, and then finally detect by adding Detection Mixture followed by incubation (10 min). Reaction procedure: 1) Prepare substrate in freshly prepared Reaction Buffer. 2) Deliver kinase into the substrate solution and gently mix. 3) Deliver compounds in 100% DMSO (1 μM) into the kinase reaction mixture by Acoustic technology (Echo550; nanoliter range), incubate for 10 min at RT. 4) Deliver ATP into the reaction mixture to initiate the reaction. 5) Incubate for 30 min at 30° C. 6) Quench the reaction with Stop Solution. 7) Add Detection Mixture, and incubate for overnight. […] The emission ratio is converted into μM PIP3 production based on PIP3 standard curves. The nonlinear regression to obtain the standard curve and IC50 values are performed using Graphpad Prism software. Assay Buffer: HEPES 50 mM (pH7.0), NaN3 0.02%, BSA 0.01%, Orthovanadate 0.1 mM, 1% DMSO. Detection buffer: HEPES 10 mM (pH7.0), BSA 0.02%, KF 0.16 M, EDTA 4 mM. Substrate: 10 μM PIP2 substrate (PI(4,5)P2).

BTK = target: T2, BTK (Homo sapiens, UniProt Q06187); test: BTK kinase assay (HotSpot, 33P ATP); type: biochemical; details: for IC50: 10 dose IC50, 10 μM ATP; for BTK @ 0.1 μM (% Inh): 0.1 μM compound; for BTK @ 0.1 μM (% Inh) / BTK @ 1 μM (% Inh): 10 μM ATP; for BTK @ 1 μM (% Inh): 1 μM compound
T2 construct: purchased Reaction Biology Corporation
T2 sequence (Q06187 whole entry): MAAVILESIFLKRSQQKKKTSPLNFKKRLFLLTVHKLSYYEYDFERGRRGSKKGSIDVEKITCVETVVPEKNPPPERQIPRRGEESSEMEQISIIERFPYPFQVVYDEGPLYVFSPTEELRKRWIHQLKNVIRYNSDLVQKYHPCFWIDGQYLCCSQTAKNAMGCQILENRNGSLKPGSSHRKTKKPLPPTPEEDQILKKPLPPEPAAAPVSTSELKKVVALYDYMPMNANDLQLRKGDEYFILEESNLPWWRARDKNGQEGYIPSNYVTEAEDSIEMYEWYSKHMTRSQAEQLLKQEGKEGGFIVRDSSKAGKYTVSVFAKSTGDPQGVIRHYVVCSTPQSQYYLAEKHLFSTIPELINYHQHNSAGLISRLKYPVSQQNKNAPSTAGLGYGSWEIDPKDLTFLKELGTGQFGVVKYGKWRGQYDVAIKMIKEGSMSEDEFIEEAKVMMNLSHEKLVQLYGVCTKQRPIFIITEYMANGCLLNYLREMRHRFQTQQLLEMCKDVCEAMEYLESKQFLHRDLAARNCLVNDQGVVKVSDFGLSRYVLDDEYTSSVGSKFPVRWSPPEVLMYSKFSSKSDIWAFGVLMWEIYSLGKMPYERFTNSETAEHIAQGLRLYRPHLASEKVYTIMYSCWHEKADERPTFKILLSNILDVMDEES
Description: as §1
BTK assay: In vitro profiling protein kinases was performed using the “HotSpot” assay platform. Briefly, specific kinase/substrate pairs along with required cofactors were prepared in reaction buffer. Compounds were prepared as 10 mM stock solutions in DMSO. Compounds were delivered into the reaction, followed 15-20 minutes later by addition of a mixture of ATP (Sigma, St. Louis Mo.) and ^33P ATP (Perkin Elmer, Waltham Mass.) to a final concentration of 10 μM. […] IC50 values and curve fits were obtained using Prism (GraphPad Software). Buffer Conditions: 20 mM Hepes (pH 7.5), 10 mM MgCl2, 1 mM EGTA, 0.02% Brij35, 0.02 mg/mL BSA, 0.1 mM Na3VO4, 2 mM DTT, 1% DMSO.

| SMILES | IC50 (PI3Kδ) [µM] | IC50 (BTK) [µM] | PI3Kδ @ 0.1 μM (% Inh) (PI3Kδ) | BTK @ 0.1 μM (% Inh) (BTK) | PI3Kδ @ 1 μM (% Inh) (PI3Kδ) | BTK @ 1 μM (% Inh) (BTK) |
| --- | --- | --- | --- | --- | --- | --- |
| COc1ccc(-c2nn(C3CCc4ccccc4C3)c3ncnc(N)c23)cc1F (racemic) [Compound No. 14, 3-(3-fluoro-4-methoxyphenyl)-1-(1,2,3,4-tetrahydronaphthalen-2-yl)-1H-pyrazolo[3,4-d]pyrimidin-4-amine] | 0.0079 | 0.217 |  |  |  |  |
| Nc1ncnc2c1c(-c1ccc3cn[nH]c3c1)nn2C1CCc2ccccc2C1 (racemic) [compound 9, 3-(1H-indazol-6-yl)-1-(1,2,3,4-tetrahydronaphthalen-2-yl)-1H-pyrazolo[3,4-d]pyrimidin-4-amine] |  |  | 44.86 % Inh | 15.85 % Inh |  |  |
| Nc1ncnc2c1c(-c1ccc(F)cc1)nn2C1CCc2ccccc2C1 (racemic) [compound 13, 3-(4-fluorophenyl)-1-(1,2,3,4-tetrahydronaphthalen-2-yl)-1H-pyrazolo[3,4-d]pyrimidin-4-amine] | 2.39 | 0.0698 |  |  |  |  |
| Nc1ncnc2c1c(-c1cnc3[nH]ccc3c1)nn2C1CCc2ccccc2C1 (racemic) [compound 16, 3-(1H-pyrrolo[2,3-b]pyridin-5-yl)-1-(1,2,3,4-tetrahydronaphthalen-2-yl)-1H-pyrazolo[3,4-d]pyrimidin-4-amine] |  |  | 51.94 % Inh | 24.0 % Inh |  |  |
| Nc1ncnc2c1c(-c1cn[nH]c1)nn2C1CCc2ccccc2C1 (racemic) [compound 20, 3-(1H-pyrazol-4-yl)-1-(1,2,3,4-tetrahydronaphthalen-2-yl)-1H-pyrazolo[3,4-d]pyrimidin-4-amine] | 0.157 | 2.02 |  |  |  |  |
| Nc1ncnc2c1c(-c1ccc(O)cc1)nn2C1CCc2ccccc2C1 (racemic) [compound 21, 4-(4-amino-1-(1,2,3,4-tetrahydronaphthalen-2-yl)-1H-pyrazolo[3,4-d]pyrimidin-3-yl)phenol] | 0.104 | 0.192 |  |  |  |  |
| COc1ccc(-c2nn(C3CCc4ccccc4C3)c3ncnc(N)c23)cc1F (single isomer, unassigned) [Compound No. 14a, 3-(3-fluoro-4-methoxyphenyl)-1-(1,2,3,4-tetrahydronaphthalen-2-yl)-1H-pyrazolo[3,4-d]pyrimidin-4-amine] | 0.102 | 0.784 |  |  |  |  |
| Nc1ncnc2c1c(/C=C/CO)nn2C1Cc2ccccc2C1 (single isomer, unassigned) [Compound No. 64, (2E)-3-[4-amino-1-(2,3-dihydro-1H-inden-2-yl)-1H-pyrazolo[3,4-d]pyrimidin-3-yl]prop-2-en-1-ol] |  |  | 0.0 % Inh | 2.74 % Inh | 4.07 | 5.76 |
| Nc1ncnc2c1c(CCCO)nn2C1Cc2ccccc2C1 (single isomer, unassigned) [Compound No. 65, 3-[4-amino-1-(2,3-dihydro-1H-inden-2-yl)-1H-pyrazolo[3,4-d]pyrimidin-3-yl]propan-1-ol] |  |  | −4.81 % Inh | 4.02 % Inh | 11.18 | 7.69 |
| Nc1ncnc2c1c(-c1ccc(Br)c(O)c1)nn2C1CCc2ccccc21 (stereo not shown) [36b, 5-[4-amino-1-(2,3-dihydro-1H-inden-1-yl)-1H-pyrazolo[3,4-d]pyrimidin-3-yl]-2-bromophenol] | 0.155 | 0.123 | 40.07 % Inh | 33.82 % Inh | 79.26 | 76.93 |
| COc1ccc(-c2nn(C3Cc4ccccc4C3)c3ncnc(N)c23)cc1OC [Compound No. 35, 1-(2,3-dihydro-1H-inden-2-yl)-3-(3,4-dimethoxyphenyl)-1H-pyrazolo[3,4-d]pyrimidin-4-amine] |  |  |  | 29.9 % Inh |  |  |
| Nc1ncnc2c1c(-c1ccc3cc[nH]c3c1)nn2C1Cc2ccccc2C1 [Compound No. 39, 1-(2,3-dihydro-1H-inden-2-yl)-3-(1H-indol-6-yl)-1H-pyrazolo[3,4-d]pyrimidin-4-amine] |  |  | 24.12 % Inh and 30.2 % Inh | 45.81 % Inh and 37.23 % Inh | 67.63 | 87.24 |
| Nc1ncnc2c1c(-c1cccc(O)c1)nn2C1Cc2ccccc2C1 [Compound No. 40, 3-[4-amino-1-(2,3-dihydro-1H-inden-2-yl)-1H-pyrazolo[3,4-d]pyrimidin-3-yl]phenol] |  |  | 41.21 % Inh | 66.35 % Inh |  |  |
| Nc1ncnc2c1c(-c1ccc(C(F)(F)F)c(OCc3ccccc3)c1)nn2C1Cc2ccccc2C1 [Compound No. 43, 3-[3-(benzyloxy)-4-(trifluoromethyl)phenyl]-1-(2,3-dihydro-1H-inden-2-yl)-1H-pyrazolo[3,4-d]pyrimidin-4-amine] |  |  | 11.31 % Inh | 3.54 % Inh | 11.07 | −0.8 |
| Nc1cccc(-c2nn(C3Cc4ccccc4C3)c3ncnc(N)c23)c1 [Compound No. 45, 3-(3-aminophenyl)-1-(2,3-dihydro-1H-inden-2-yl)-1H-pyrazolo[3,4-d]pyrimidin-4-amine] |  |  | 12.84 % Inh | 49.32 % Inh | 44.54 | 87.47 |
| Cc1ccc(-c2nn(C3Cc4ccccc4C3)c3ncnc(N)c23)cc1N [Compound No. 46, 3-(3-amino-4-methylphenyl)-1-(2,3-dihydro-1H-inden-2-yl)-1H-pyrazolo[3,4-d]pyrimidin-4-amine] | 1.29 | 0.0212 | 30.55 % Inh | 85.71 % Inh | 67.34 | 96.3 |
| Nc1ncnc2c1c(-c1ccc3[nH]cnc3c1)nn2C1Cc2ccccc2C1 [Compound No. 47, 3-(1H-1,3-benzodiazol-5-yl)-1-(2,3-dihydro-1H-inden-2-yl)-1H-pyrazolo[3,4-d]pyrimidin-4-amine] |  |  | 78.41 % Inh | 9.61 % Inh | 100.0 | 48.47 |
| Nc1ncnc2c1c(N1CCOCC1)nn2C1Cc2ccccc2C1 [Compound No. 48, 1-(2,3-dihydro-1H-inden-2-yl)-3-(morpholin-4-yl)-1H-pyrazolo[3,4-d]pyrimidin-4-amine] |  |  | 7.12 % Inh | 1.56 % Inh | 11.95 | 16.21 |
| COc1cc(-c2nn(C3Cc4ccccc4C3)c3ncnc(N)c23)ccn1 [Compound No. 50, 1-(2,3-dihydro-1H-inden-2-yl)-3-(2-methoxypyridin-4-yl)-1H-pyrazolo[3,4-d]pyrimidin-4-amine] | 0.362 | 1.26 | 39.05 % Inh | 21.32 % Inh | 79.98 | 66.77 |
| Nc1ncnc2c1c(-c1ccnc(O)c1)nn2C1Cc2ccccc2C1 [Compound No. 52, 4-[4-amino-1-(2,3-dihydro-1H-inden-2-yl)-1H-pyrazolo[3,4-d]pyrimidin-3-yl]pyridin-2-ol] |  |  | 6.493 % Inh | 9.25 % Inh | 37.25 | 24.21 |
| Nc1ncnc2c1c(-c1ccccc1CO)nn2C1Cc2ccccc2C1 [Compound No. 53, {2-[4-amino-1-(2,3-dihydro-1H-inden-2-yl)-1H-pyrazolo[3,4-d]pyrimidin-3-yl]phenyl}methanol] | 0.645 | 0.575 | 30.15 % Inh | 30.42 % Inh | 81.32 | 76.1 |
| Nc1ncnc2c1c(-c1cccc(CO)c1)nn2C1Cc2ccccc2C1 [Compound No. 54, {3-[4-amino-1-(2,3-dihydro-1H-inden-2-yl)-1H-pyrazolo[3,4-d]pyrimidin-3-yl]phenyl}methanol] | 0.924 | 0.84 | 22.41 % Inh | 27.64 % Inh | 72.03 | 72.19 |
